The subject of one test is KO-52 cells. Kind of test: Proliferation assay, spheroid-like growth, KO-52 (MLL wildtype control cell line). In kind it is cell-based, human. To be noted: Homo sapiens, 192 h, KO-52 control cells, 8 days, confluence as measure of spheroid size; read-out: spheroid assay_OneTime KO-52 IC50. In outline: (§1)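 Cells seeded in ultra-low attachment round-bottom wells (200 MOLM14 or 300 KO-52 per well) with compound at several concentrations, DMSO 0.3%, grown 8 days at 37° C, 5% CO2. Spheroid size taken as confluence from day-8 live-cell images; IC50 from variable-slope fit, DMSO as 0% and high-dose reference compound as 100% effect.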

For a further test, the system named is MOLM14 cells. Nature of the test: Proliferation assay, spheroid-like growth, MOLM14 (MLL-AF9 rearranged). In kind it is cell-based, human. To be noted: Homo sapiens, MOLM-14, 192 h, 8 days, confluence as measure of spheroid size, read-out: spheroid assay_OneTime MOLM14 IC50. A digest of the protocol: as §1
Test [1] addresses T1, menin/MLL (terbium chelate-labeled menin, FITC-MBM1 peptide) (Homo sapiens, UniProt O00255, T541A).
T1 construct: Menin (a.a 1-610-6xhis tag)
T1 sequence (O00255 with tags, fused parts or gaps T541A): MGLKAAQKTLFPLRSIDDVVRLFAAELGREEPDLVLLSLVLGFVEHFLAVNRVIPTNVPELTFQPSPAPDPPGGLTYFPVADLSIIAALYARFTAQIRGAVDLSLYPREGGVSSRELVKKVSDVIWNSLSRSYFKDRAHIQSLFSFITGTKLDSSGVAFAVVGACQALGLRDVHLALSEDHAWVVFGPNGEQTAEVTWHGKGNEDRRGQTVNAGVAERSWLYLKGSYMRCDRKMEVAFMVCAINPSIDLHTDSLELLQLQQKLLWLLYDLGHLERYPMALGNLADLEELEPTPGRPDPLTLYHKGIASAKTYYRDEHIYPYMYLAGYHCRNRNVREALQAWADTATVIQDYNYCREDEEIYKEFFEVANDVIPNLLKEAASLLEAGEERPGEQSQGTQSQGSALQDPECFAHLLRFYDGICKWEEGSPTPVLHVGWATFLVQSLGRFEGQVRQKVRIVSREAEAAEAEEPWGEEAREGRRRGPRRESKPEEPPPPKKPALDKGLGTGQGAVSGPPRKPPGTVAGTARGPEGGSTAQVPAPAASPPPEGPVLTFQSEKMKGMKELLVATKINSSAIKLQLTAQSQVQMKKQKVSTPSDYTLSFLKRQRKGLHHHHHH
Nature of the test: Menin/MLL homogenous time-resolved fluorescence (HTRF) assay. The format is binding. The settings on record: 30 min incubation. A digest of the protocol: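 Terbium-labeled menin (aa 1-610, His-tagged; 200 pM) preincubated 30 min with compound, then 75 nM FITC-MBM1 peptide added for 15 min at ambient temperature in pH 7.5 Tris buffer, 0.5% DMSO. HTRF ratio 520/490 nm converted to % inhibition. IC50 came from an 11-point four-fold titration from 10 μM, floor 0.1 nM.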
(In TR-FRET formats the signal depends on donor and acceptor labels being close together.)

SMILES strings stand for the structures.

Usually IC50 stands for the concentration at which inhibition is half-maximal. In the case of `CNC(=O)c1cnc(N[C@H]2C[C@@H]([C@@H](C(C)C)N3CC4(CCN(c5ncnnc5Oc5ccc(F)cc5-c5cncnc5C5CC5)C4)C3)C2)s1` (single isomer, unassigned) [Compound 437], the 50% inhibitory concentration (IC50) with KO-52 cells was found to be 4700 nM; with MOLM14 cells, 3.3 nM; in test [1] it was 0.05 nM.
Taken in the same sequence, the figures for `CCOC(=O)c1cnc(N[C@H]2C[C@@H](C(C(C)C)N3CC4(CCN(c5ncnnc5Oc5ccc(F)cc5-c5cncnc5C5CC5)C4)C3)C2)o1` (single isomer, unassigned) [Compound 478] were 1250 nM, 12 nM and 0.29 nM.
With `CC(C)C([C@H]1C[C@@H](Nc2ncc(C(=O)O)o2)C1)N1CC2(CCN(c3ncnnc3Oc3ccc(F)cc3-c3cncnc3C3CC3)C2)C1` (single isomer, unassigned) [Compound 479], the 50% inhibitory concentration (IC50) is greater than 15000 nM in the test on KO-52 cells, 530 nM in the test on MOLM14 cells and 1.77 nM in test [1].
Regarding `CC(=O)N[C@H]1C[C@@H](C(C(C)C)N2CC3(CCN(c4ncnnc4Oc4ccc(F)cc4-c4cncnc4C4CC4)C3)C2)C1` (stereo partly drawn) [Compound 2], the 50% inhibitory concentration (IC50) amounted to 9040 nM in the test on KO-52 cells, 29 nM in the test with MOLM14 cells and 0.4 nM in test [1].
Regarding `CC(C)C(C1CCN(CC2COC2)CC1)N1CC2(CCN(c3ncnnc3Oc3ccc(F)cc3-c3cncnc3C3CC3)C2)C1` (stereo not drawn) [Compound 6], the half-maximal inhibitory concentration (IC50) in the test with KO-52 cells turned out to be 6470 nM; in the test with MOLM14 cells, 280 nM; in test [1], 0.3 nM.
As for `CC(C)C([C@H]1C[C@@H](N2CCOCC2)C1)N1CC2(CCN(c3ncnnc3Oc3ccc(F)cc3-c3cncnc3C3CC3)C2)C1` (stereo partly drawn) [Compound 120], the half-inhibitory concentration (IC50) was greater than 15000 nM in the test on KO-52 cells, 73 nM with MOLM14 cells and 0.3 nM in test [1].
In the case of `CC(C)C([C@H]1C[C@@H](N2CCC(O)CC2)C1)N1CC2(CCN(c3ncnnc3Oc3ccc(F)cc3-c3cncnc3C3CC3)C2)C1` (stereo partly drawn) [Compound 121], the IC50 was 2780 nM in the test on KO-52 cells, 7 nM with MOLM14 cells and 0.1 nM in test [1].
In the same order, the values of `CC(C)C([C@H]1C[C@@H](N2CCC(C#N)CC2)C1)N1CC2(CCN(c3ncnnc3Oc3ccc(F)cc3-c3cncnc3C3CC3)C2)C1` (stereo partly drawn) [Compound 122] are greater than 15000 nM, 55 nM and 0.2 nM.
In the same order, the values of `CC(C)C([C@H]1C[C@@H](N2CCS(=O)(=O)CC2)C1)N1CC2(CCN(c3ncnnc3Oc3ccc(F)cc3-c3cncnc3C3CC3)C2)C1` (stereo partly drawn) [Compound 123] are greater than 15000 nM, 1910 nM and 5.4 nM.
For `COC1CCN([C@H]2C[C@@H](C(C(C)C)N3CC4(CCN(c5ncnnc5Oc5ccc(F)cc5-c5cncnc5C5CC5)C4)C3)C2)CC1` (stereo partly drawn) [Compound 124], the half-maximal inhibitory concentration (IC50) in the test on KO-52 cells came out at 2520 nM; in the test with MOLM14 cells it was 12 nM; in test [1] it was 0.2 nM.
Consider `CC(C)C([C@H]1C[C@@H](N2CC(O)C2)C1)N1CC2(CCN(c3ncnnc3Oc3ccc(F)cc3-c3cncnc3C3CC3)C2)C1` (stereo partly drawn) [Compound 125], for which the 50% inhibitory concentration (IC50) in the test with KO-52 cells amounted to 5300 nM; with MOLM14 cells it was 12 nM; in test [1] it was 0.1 nM.
Regarding `CC(C)C([C@H]1C[C@H](N2CC(O)C2)C1)N1CC2(CCN(c3ncnnc3Oc3ccc(F)cc3-c3cncnc3C3CC3)C2)C1` (stereo partly drawn) [Compound 126], the 50% inhibitory concentration (IC50) in the test with KO-52 cells worked out at 14900 nM; in the test on MOLM14 cells, 150 nM; in test [1], 0.4 nM.
As to `CC(C)C([C@H]1C[C@@H](N2CCC(F)(F)CC2)C1)N1CC2(CCN(c3ncnnc3Oc3ccc(F)cc3-c3cncnc3C3CC3)C2)C1` (stereo partly drawn) [Compound 127], the IC50 is 4660 nM in the test on KO-52 cells, 160 nM with MOLM14 cells and 0.5 nM in test [1].
With `CC(C)C([C@H]1C[C@H](N2CCC(F)(F)CC2)C1)N1CC2(CCN(c3ncnnc3Oc3ccc(F)cc3-c3cncnc3C3CC3)C2)C1` (stereo partly drawn) [Compound 128], the IC50 was determined as 7890 nM in the test on KO-52 cells, 450 nM with MOLM14 cells and 1.3 nM in test [1].
Turning to `CC(C)C([C@H]1C[C@@H](N2CCC(C)(O)CC2)C1)N1CC2(CCN(c3ncnnc3Oc3ccc(F)cc3-c3cncnc3C3CC3)C2)C1` (stereo partly drawn) [Compound 129], the IC50 with KO-52 cells stood at 3390 nM; with MOLM14 cells, 11 nM; in test [1], 0.2 nM.
In the same order, the values of `CC(C)C([C@H]1C[C@@H](N2CCC(C(=O)N(C)C)CC2)C1)N1CC2(CCN(c3ncnnc3Oc3ccc(F)cc3-c3cncnc3C3CC3)C2)C1` (stereo partly drawn) [Compound 131] are 6200 nM, 50 nM and 0.2 nM.
In the same order, the values of `CC(C)C([C@H]1C[C@@H](N2CCC(S(C)(=O)=O)CC2)C1)N1CC2(CCN(c3ncnnc3Oc3ccc(F)cc3-c3cncnc3C3CC3)C2)C1` (stereo partly drawn) [Compound 132] are 8100 nM, 76 nM and 0.3 nM.
For the molecule `CC(C)C([C@H]1C[C@@H](NCC(C)(C)O)C1)N1CC2(CCN(c3ncnnc3Oc3ccc(F)cc3-c3cncnc3C3CC3)C2)C1` (stereo partly drawn) [Compound 133], the IC50 with KO-52 cells was 7380 nM; in the test with MOLM14 cells it was 21 nM; in test [1], 0.1 nM.
For the molecule `CC(C)C([C@H]1C[C@@H](N2CCCCC2)C1)N1CC2(CCN(c3ncnnc3Oc3ccc(F)cc3-c3cncnc3C3CC3)C2)C1` (stereo partly drawn) [Compound 135], the IC50 in the test with KO-52 cells amounted to 1000 nM; with MOLM14 cells, 8 nM; in test [1], 0.3 nM.
With `CC(C)C([C@H]1C[C@@H](N(C)C)C1)N1CC2(CCN(c3ncnnc3Oc3ccc(F)cc3-c3cncnc3C3CC3)C2)C1` (stereo partly drawn) [Compound 136], the results for the half-maximal inhibitory concentration (IC50) (in the test with KO-52 cells; in the test with MOLM14 cells; in test [1]) were 7070 nM, 8 nM and 0.1 nM, respectively.
For the molecule `CC(C)C([C@H]1C[C@@H](N2C[C@H]3COC[C@H]3C2)C1)N1CC2(CCN(c3ncnnc3Oc3ccc(F)cc3-c3cnccc3C3CC3)C2)C1` (stereo partly drawn) [Compound 138], the IC50 is 460 nM in the test on KO-52 cells, 2 nM with MOLM14 cells and 0.1 nM in test [1].
Taken in the same sequence, the figures for `CC(C)C([C@H]1C[C@H](N2C[C@H]3COC[C@H]3C2)C1)N1CC2(CCN(c3ncnnc3Oc3ccc(F)cc3-c3cnccc3C3CC3)C2)C1` (stereo partly drawn) [Compound 139] were 1310 nM, 41 nM and 0.1 nM.
In the same order, the values of `CC(C)C([C@H]1C[C@@H](N2C[C@H]3COC[C@H]3C2)C1)N1CC2(CCN(c3ncnnc3Oc3ccc(F)cc3-c3cncc(C#N)c3C3CC3)C2)C1` (stereo partly drawn) [Compound 142] are 1350 nM, 7 nM and 0.1 nM.
`CC(C)C([C@H]1C[C@H](N2C[C@H]3COC[C@H]3C2)C1)N1CC2(CCN(c3ncnnc3Oc3ccc(F)cc3-c3cncc(C#N)c3C3CC3)C2)C1` (stereo partly drawn) [Compound 143]: the half-maximal inhibitory concentration (IC50) was 1530 nM in the test on KO-52 cells, 27 nM in the test on MOLM14 cells and 0.1 nM in test [1].
Taken in the same sequence, the figures for `CC(=O)N1CCN([C@H]2C[C@@H](C(C(C)C)N3CC4(CCN(c5ncnnc5Oc5ccc(F)cc5-c5cncc(C#N)c5C5CC5)C4)C3)C2)CC1` (stereo partly drawn) [Compound 144] were 12300 nM, 200 nM and 0.8 nM.

For the origin of these results see US20240417405A1, “Substituted Spiro Derivatives” (Janssen Pharmaceutica NV, priority 2021, published 2024).
